Values after ≈ are worked out from the molar mass of the structure shown.
How the values were obtained:
[1] = Aqueous solubility determination (Multiscreen solubility filter plate, UV/vis); type: physicochemical; conditions: universal aqueous buffer, pH 7.4, aqueous buffer, kinetic from dmso stock, universal aqueous buffer pH 7.4, 90 min, room temperature
Procedure: Aqueous Solubility Determination. The following procedure was used to obtain the aqueous solubility results summarized in Example 8. Step 1. Determination of optimal UV/vis wavelengths and generation of standard curves for a compound of interest: • (1) For eight standard calibration curves (one plate), prepare 34 mL of 50:50 (v:v) universal buffer:acetonitrile in a 50 mL tube. • (2) Using a multichannel pipet, dispense (in μL) the buffer:acetonitrile in a deep well plate as follows:
• (6) Cover plate with lid and shake (200-300 rpm) at room temperature for 20 minutes. • (7) Mix all wells by pipetting up and down 10 times. • (8) Transfer 120 μL from each well to a UV transparent plate. Cover and shake for 3-5 minutes. Remove any bubbles in the wells using a pipet. • (9) Read from 220 nm to 500 nm at 10 nm increments on a spectrophotometer (e.g., SpectraMax®).
Step 2. Compound Solubility Testing Procedures Using the Millipore™ Multiscreen® Solubility Filter Plate.
Universal Aqueous Buffer: • (a) To prepare 500 mL of universal buffer, add the following: 250 mL Nanopure water; 1.36 mL (45 mM) ethanolamine; 3.08 g (45 mM) potassium dihydrogen phosphate; 2.21 g (45 mM) potassium acetate; thoroughly mix. • (b) Adjust pH to 7.4 with HCl and q.s. to 500 mL with 0.15 M KCl. • (c) Filter to remove particulates and reduce bacterial growth. • (d) Store at 4° C. in the dark.
Solubility Protocol: • (a) Add 285 μL of Universal Aqueous Buffer to desired wells of the Millipore™ Multiscreen® Solubility filter plate. • (b) Add 15 μL of 10 mM compound in DMSO to the appropriate wells. Add 15 μL of 100% DMSO only to 6 wells of the filter plate for blanks. • (c) Using a multichannel pipet, mix wells by pipetting up and down 10 times. Be careful not to touch the filters in the plate with the tips. • (d) Cover and gently shake (200-300 rpm) filter plate for 90 minutes at room temperature. • (e) Vacuum filter the aqueous solution from the Multiscreen® solubility filter plate into a polypropylene V-bottom plate. • (f) Transfer 60 μL of filtrate to a UV transparent plate (Greiner® UV-Star Analysis Plate). • (g) Add 60 μL of acetonitrile to each well and mix by pipetting up and down 10 times. • (h) Cover and gently shake for 3-5 minutes. Remove any bubbles with a pipet. • (i) Measure the absorbance of each well in the plate on the spectrophotometer (UV/vis) at the desired wavelength. For compounds in a plate with different absorbance peaks, set the spectrophotometer to read a spectrum (e.g., from 220 nm to 460 nm). • (j) Identify concentration using measured absorbance for each compound and the predetermined standard curve (see Step 1).

[2] = test system: RAW264.7 macrophages; assay: Cell viability, WST-1 reagent; type: cell-based, mouse; conditions: RAW264.7 (20 ng/ml IFNγ)
Procedure: (§1) FIGS. 1-8 and 32-34. Inhibition of NO Production. RAW264.7 macrophages were pre-treated with DMSO or drugs at various concentrations (nM) for 2 hours, then treated with 20 ng/ml IFNγ for 24 hours. NO concentration in media was determined using a Griess reagent system; cell viability was determined using WST-1 reagent.
(§2) Nitric Oxide production and cell viability. RAW264.7 macrophages were pre-treated with DMSO or drugs for 2 hours, then treated with recombinant mouse IFNγ (Sigma) for 24 hours. NO concentration in media was determined using the Griess reagent system (Promega). Cell viability was determined using WST-1 reagent (Roche).

[3] = test system: NQO1; assay: Nrf2 target gene induction, NQO1; type: cell-based, human; conditions: MDA-MB-435 cells, 250 nM; fold induction above DMSO control
[4] = test system: IFNγ-induced NO production in RAW264.7 macrophages; assay: Suppression of IFNγ-induced NO production (Griess reagent); type: cell-based, mouse; conditions: RAW264.7, 20 ng/ml IFNγ 24 h, 2 h pre-treatment
Procedure: as §1, §2

[5] = test system: HO-1; assay: Nrf2 target gene induction, HO-1 mRNA (qPCR); type: cell-based, human; conditions: MDA-MB-435 cells, 250 nM; fold induction above DMSO control
Procedure: (§3) FIGS. 17-20. Induction of HO-1. MDA-MB-435 human melanoma cells were treated with vehicle (DMSO) or the indicated compounds and concentrations for 16 hours. HO-1 mRNA levels were quantified using qPCR and were normalized relative to a DMSO-treated sample run in parallel. Values are averages of duplicate wells.
as §3, with “FIG. 21.” for “FIGS. 17-20.”, “HO-1, TrxR1 and γ-GCS.” for “HO-1.”, “HO-1, thioredoxin reductase-1 (TrxR1), and γ-glutamylcysteine synthetase (γ-GCS)” for “HO-1”
as §3, with “Nrf2 target gene induction.” for “FIGS. 17-20. Induction of HO-1.”, “HO-1, thioredoxin reductase-1 (TrxR1), γ-glutamylcysteine synthetase (γ-GCS), and ferritin heavy chain” for “HO-1”, “wells. Primer sequences are as follows.” for “wells.”

[6] = test system: γ-glutamylcysteine synthetase (γ-GCS); assay: Nrf2 target gene induction, γ-GCS mRNA (qPCR); type: cell-based, human; conditions: MDA-MB-435 cells, 250 nM; fold induction above DMSO control
Procedure: as §3, with “FIG. 21.” for “FIGS. 17-20.”, “HO-1, TrxR1 and γ-GCS.” for “HO-1.”, “HO-1, thioredoxin reductase-1 (TrxR1), and γ-glutamylcysteine synthetase (γ-GCS)” for “HO-1”
as §3, with “FIG. 23.” for “FIGS. 17-20.”, “γ-GCS.” for “HO-1.”, “γ-glutamylcysteine synthetase (γ-GCS)” for “HO-1”
as §3, with “Nrf2 target gene induction.” for “FIGS. 17-20. Induction of HO-1.”, “HO-1, thioredoxin reductase-1 (TrxR1), γ-glutamylcysteine synthetase (γ-GCS), and ferritin heavy chain” for “HO-1”, “wells. Primer sequences are as follows.” for “wells.”

[7] = test system: mice; assay: 9-day toxicity study in mice; type: in vivo; conditions: sesame oil, p.o. daily for 9 days
Procedure: In a second experiment, six additional compound differing only in the saturation or non-saturation of the C ring were tested for toxicity in mice by daily oral administration for 9 days, using sesame oil as the vehicle.

Row | solubility at 90 min [1] [µM] | IC50 ([4]; Mus musculus) [nM] | SMILES | IC50 ([2]; Mus musculus) [nM] | NQO1 induction [3] [fold] | HO-1 induction [5] [fold] | also measured
1 | – | ~10 | CC1(C)CC[C@]2(C=O)CC[C@]3(C)[C@H](C(=O)CC4[C@@]5(C)C=C(C#N)C(=O)C(C)(C)[C@@H]5CC[C@]43C)[C@@H]2C1 (stereo partly drawn) [Compound 63206, (4aR,6aR,6bR,8aS,12aS,12bR,14bR)-8a-formyl-4,4,6a,6b,11,11,14b-heptamethyl-3,13-dioxo-3,4,4a,5,6,6a,6b,7,8,8a,9,10,11,12,12a,12b,13,14,14a,14b-icosahydropicene-2-carbonitrile] | > 200 | 1.8 | 2.5 | γ-GCS induction [6]: 4.5 fold
2 | – | ~25 | CC1(C)CC[C@]2(C(N)=O)CC[C@]3(C)[C@H](C(=O)CC4[C@@]5(C)C=C(C#N)C(=O)C(C)(C)[C@@H]5CC[C@]43C)[C@@H]2C1 (stereo partly drawn) [Compound 63205, (4aS,6aR,6bR,8aR,12aR,14aR,14bS)-11-cyano-2,2,6a,6b,9,9,12a-heptamethyl-10,14-dioxo-1,2,3,4,4a,5,6,6a,6b,7,8,8a,9,10,12a,12b,13,14,14a,14b-icosahydropicene-4a-carboxamide] | > 200 | 1.7 | 1.7 | γ-GCS induction [6]: 3.5 fold
3 | – | ~5 | CC1(C)CC[C@]2(C#N)CC[C@]3(C)[C@H](C(=O)CC4[C@@]5(C)C=C(C#N)C(=O)C(C)(C)[C@@H]5CC[C@]43C)[C@@H]2C1 (stereo partly drawn) [Compound 63252, (4aR,6aR,6bR,8aS,12aS,12bR,14bR)-4,4,6a,6b,11,11,14b-heptamethyl-3,13-dioxo-3,4,4a,5,6,6a,6b,7,8,8a,9,10,11,12,12a,12b,13,14,14a,14b-icosahydropicene-2,8a-dicarbonitrile] | > 200 | 3 | 5 | –
4 | 1.23 (≈ 0.607 µg/mL) | – | CC1(C)CC[C@]2(CCO)CC[C@]3(C)[C@H](C(=O)C[C@@H]4[C@@]5(C)C=C(C#N)C(=O)C(C)(C)[C@@H]5CC[C@]43C)[C@@H]2C1 [Compound 63231] | – | – | – | –
5 | 112 (≈ 53.7 µg/mL) | – | CC1(C)CC[C@]2(CN)CC[C@]3(C)[C@H](C(=O)C[C@@H]4[C@@]5(C)C=C(C#N)C(=O)C(C)(C)[C@@H]5CC[C@]43C)[C@@H]2C1 [Compound 63214] | – | – | – | –
6 | 1.89 (≈ 0.907 µg/mL) | – | CC1(C)CC[C@]2(CO)CC[C@]3(C)[C@H](C(=O)C[C@@H]4[C@@]5(C)C=C(C#N)C(=O)C(C)(C)[C@@H]5CC[C@]43C)[C@@H]2C1 [Compound 63202] | – | – | – | –

Second part, the molecule before the results:

Row | SMILES | solubility at 90 min [1] [µM] | IC50 ([4]; Mus musculus) [nM] | IC50 ([2]; Mus musculus) [nM] | NQO1 induction [3] [fold] | HO-1 induction [5] [fold] | also measured
7 | COC(=O)[C@]12CCC(C)(C)C[C@H]1[C@H]1C(=O)C=C3[C@@]4(C)C=C(C#N)C(=O)C(C)(C)[C@@H]4CC[C@@]3(C)[C@]1(C)CC2 [Compound 402, reference compound] | 1.46 (≈ 0.738 µg/mL) | – | – | – | – | –
8 | COC(=O)[C@]12CCC(C)(C)C[C@H]1[C@H]1[C@@H](O)C[C@@H]3[C@@]4(C)C=C(C#N)C(=O)C(C)(C)[C@@H]4CC[C@@]3(C)[C@]1(C)CC2 [Compound 63219] | 13.6 (≈ 6.92 µg/mL) | ~150 | > 200 | – | – | –
9 | Cc1cc(CNC[C@]23CCC(C)(C)C[C@H]2[C@H]2C(=O)C[C@@H]4[C@@]5(C)C=C(C#N)C(=O)C(C)(C)[C@@H]5CC[C@@]4(C)[C@]2(C)CC3)no1 [Compound 63232] | 0.75 (≈ 0.43 µg/mL) | – | – | – | – | –
10 | CC1(C)CC[C@]23CC[C@@]4(C)[C@]5(C)CC[C@H]6C(C)(C)C(=O)C(C#N)=C[C@]6(C)[C@H]5CC(=O)[C@@]4([C@@H]2C1)N(CC(F)(F)F)C3=O [Compound 63237] | 5.16 (≈ 2.96 µg/mL) | ~80 | > 200 | 2.3 | 3 | γ-GCS induction [6]: 6.4 fold
11 | COC(=O)[C@]12CCC(C)(C)C[C@H]1[C@H]1[C@H](O)C[C@@H]3[C@@]4(C)C=C(C#N)C(=O)C(C)(C)[C@@H]4CC[C@@]3(C)[C@]1(C)CC2 [Compound 63207] | – | – | – | 1.6 | 1.2 | IC50 [2]: > 200 nM; IC50 [4]: ~50 nM; γ-GCS induction [6]: 3.1 fold
12 | CC1(C)CC[C@]2(CNC(=O)C(F)(F)F)CC[C@]3(C)[C@H](C(=O)C[C@@H]4[C@@]5(C)C=C(C#N)C(=O)C(C)(C)[C@@H]5CC[C@]43C)[C@@H]2C1 [Compound 63226] | 0.71 (≈ 0.408 µg/mL) | – | – | – | – | –
13 | CC1(C)CC[C@]2([C@@H](O)CO)CC[C@]3(C)[C@H](C(=O)C[C@@H]4[C@@]5(C)C=C(C#N)C(=O)C(C)(C)[C@@H]5CC[C@]43C)[C@@H]2C1 [Compound 63221] | 8.78 (≈ 4.48 µg/mL) | – | – | – | – | –
14 | CN(C)C(=O)[C@]12CCC(C)(C)C[C@H]1[C@H]1C(=O)C[C@@H]3[C@@]4(C)C=C(C#N)C(=O)C(C)(C)[C@@H]4CC[C@@]3(C)[C@]1(C)CC2 [Compound 63326, (4aS,6aR,6bR,8aR,12aR,12bR,14aR,14bS)-11-cyano-N,N,2,2,6a,6b,9,9,12a-nonamethyl-10,14-dioxo-1,2,3,4,4a,5,6,6a,6b,7,8,8a,9,10,12a,12b,13,14,14a,14b-icosahydropicene-4a-carboxamide] | – | ~50 | – | – | – | Mortality ([7]; 3 mg/kg): 0/5; Mortality ([7]; 10 mg/kg): 1/5; Mortality ([7]; 30 mg/kg): 0/5

Reference: patent US7915402B2, “Antioxidant inflammation modulators: oleanolic acid derivatives with saturation in the C-ring” (Reata Pharmaceuticals, Inc., priority 2008, dated 2011)
